In experiment [1] the target is T1, NSD2-PWWP1 (Homo sapiens, UniProt O96028).
T1 sequence (O96028 222-286 limits assumed): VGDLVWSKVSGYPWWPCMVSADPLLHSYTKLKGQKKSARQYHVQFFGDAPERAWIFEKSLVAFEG
Type of experiment: binding. The conditions noted are these: for potency on NSD2-PWWP1, SAR statement in words: relative to parent compound 2 or 3, Tables 1 and 2 (images, DSLS/SPR).

Experiment [2] deals with T2, NSD2-PWWP1 (Homo sapiens, UniProt O96028).
T2 sequence (O96028 211-350): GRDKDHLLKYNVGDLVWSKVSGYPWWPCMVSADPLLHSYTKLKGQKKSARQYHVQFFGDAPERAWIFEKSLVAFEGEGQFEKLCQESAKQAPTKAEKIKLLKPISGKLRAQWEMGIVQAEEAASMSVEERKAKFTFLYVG
The experiment is described as follows: Differential static light scattering. Type of experiment: binding. The note with it: read-out: increase of melting temperature of N-terminal PWWP domain of NSD2.

A further experiment concerns PWWP domains. The note with it: DSLS.

Entries after “also recorded” stand apart in the source; their conditions may differ.

`N#Cc1ccc(C(=O)N2CCCC2c2ccccc2)cc1` (centres unmarked) [Compound 2a]: on NSD2-PWWP1 [1], the “potency on NSD2-PWWP1, SAR statement in words” value (shortened to “potency on NSD2-PWWP1”) was “improved potency”.

As to `N#Cc1ccc(C(=O)NCc2ccc(F)cc2)cc1` [Compound 3b], the “potency on NSD2-PWWP1” value at NSD2-PWWP1 [1] is “much weaker or completely inactive”. Same read-out and setting: in the case of `Cc1ccc(C(=O)N2CCCC2c2ccc(Cl)cc2)cc1` (centres unmarked) [Compound 2i] it was “abolished activity”.

Turning to `N#Cc1ccc(C(C(N)=O)N2CCC2c2ccc(Cl)cc2)cc1` (centres unmarked) [Compound 1], at NSD2-PWWP1 [2], the ΔTm at 400 µM was determined as 4 °C. Further, in the experiment on PWWP domains (compound at 400 μM (Table S2)), the “binding to six other PWWP-containing proteins” value was “did not bind”. Consider `COc1ccc(C2CCCN2C(=O)c2ccc(C#N)cc2)cc1` (centres unmarked) [Compound 2b], for which the “potency on NSD2-PWWP1” value on NSD2-PWWP1 [1] is “no significant effect”. With `O=C(c1ccccc1)N1CCCC1c1ccccc1` (centres unmarked) [Compound 2h], the “potency on NSD2-PWWP1” value on NSD2-PWWP1 [1] is listed as “abolished activity”.

Consider `CN(Cc1ccc(F)cc1)C(=O)c1ccc(C#N)cc1` [Compound 3a], for which, on NSD2-PWWP1 [1], the “potency on NSD2-PWWP1” value is “much weaker or completely inactive”. For the compound `N#Cc1ccc(C(=O)N(Cc2ccc(F)cc2)C2CC2)cc1` [Compound 3], on NSD2-PWWP1 [1] (ratio of SPR Kd values), the “fold more potent than compound 1” value came to 6 and the “fold more potent than compound 2” value came out at 25.

For `N#Cc1ccc(C(=O)N(Cc2cccs2)C2CC2)cc1` [Compound 3f], the “binding / effect on melting temperature in a panel of 10 PWWP domains” value in the experiment on PWWP domains (compound at 100 μM (Figure 2C)) is on record as “only bound NSD2-PWWP1; also recorded: only affects the melting temperature of NSD2-PWWP1”.

These data come from PMC8130708 (Journal of medicinal chemistry, 2021).
